This note sets out measurements from ChEMBL document CHEMBL1133914, “Conformationally restricted indolopiperidine derivatives as potent CCR2B receptor antagonists” (Bioorg Med Chem Lett, 2001).

The structures appear in SMILES notation. Where “and” joins values, the source holds several entries; their conditions need not be identical. Equal values may be shown once. Calls of active or inactive are those of the source. The rule behind the calls is not given here. A value given as a limit tells only on which side of the number the result lay.

By Ki is commonly meant a dissociation constant, usually derived from enzyme kinetics or from competition with a known ligand. Higher therefore signals a looser hold on the target.

For test [1], the target named is T1, 5-hydroxytryptamine receptor 2C (Homo sapiens, UniProt P28335).
T1 sequence (P28335 whole entry): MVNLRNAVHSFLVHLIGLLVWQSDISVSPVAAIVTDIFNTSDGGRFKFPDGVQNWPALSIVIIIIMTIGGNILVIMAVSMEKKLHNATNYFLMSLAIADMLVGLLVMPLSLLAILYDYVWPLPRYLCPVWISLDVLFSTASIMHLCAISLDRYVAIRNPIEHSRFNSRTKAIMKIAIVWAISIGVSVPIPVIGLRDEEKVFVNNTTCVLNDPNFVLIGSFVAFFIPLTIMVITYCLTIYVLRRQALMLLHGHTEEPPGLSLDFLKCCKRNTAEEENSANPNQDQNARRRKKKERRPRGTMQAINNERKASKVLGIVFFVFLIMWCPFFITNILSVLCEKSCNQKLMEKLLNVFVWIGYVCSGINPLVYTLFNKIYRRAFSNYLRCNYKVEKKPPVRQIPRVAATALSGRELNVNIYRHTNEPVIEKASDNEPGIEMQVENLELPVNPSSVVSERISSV
As to the kind of experiment: Binding affinity for 5-hydroxytryptamine 2C receptor was determined.

The target of test [2] is T2, 5-hydroxytryptamine receptor 1B (Homo sapiens, UniProt P28222). As to the kind of experiment: Binding affinity for 5-hydroxytryptamine 1B receptor was determined.
Test [3] addresses T3, 5-hydroxytryptamine receptor 1A (Homo sapiens, UniProt P08908).
T3 sequence (P08908 whole entry): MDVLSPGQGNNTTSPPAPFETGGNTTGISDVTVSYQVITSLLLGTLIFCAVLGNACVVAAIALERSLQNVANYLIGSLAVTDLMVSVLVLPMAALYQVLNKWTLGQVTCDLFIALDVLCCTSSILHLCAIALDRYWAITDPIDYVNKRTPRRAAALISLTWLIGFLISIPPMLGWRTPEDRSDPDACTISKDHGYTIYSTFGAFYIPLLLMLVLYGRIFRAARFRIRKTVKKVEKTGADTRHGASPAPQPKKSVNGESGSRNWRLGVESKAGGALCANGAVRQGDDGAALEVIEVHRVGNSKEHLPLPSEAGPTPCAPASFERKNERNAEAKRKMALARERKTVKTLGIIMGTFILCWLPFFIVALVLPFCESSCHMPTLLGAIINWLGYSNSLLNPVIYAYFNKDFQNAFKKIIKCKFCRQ
As to the kind of experiment: Binding affinity for 5-hydroxytryptamine 1A receptor was determined.

Test [4] has as its target T4, 5-hydroxytryptamine receptor 7 (Homo sapiens, UniProt P34969). The experiment in a line: Binding affinity for 5-hydroxytryptamine 7 receptor was determined.
Test [5] deals with T5, 5-hydroxytryptamine receptor 2B (Homo sapiens, UniProt P41595). The experiment in a line: Binding affinity for 5-hydroxytryptamine 2B receptor was determined.
The target of test [6] is T6, D(2) dopamine receptor (Homo sapiens, UniProt P14416). As to the kind of experiment: Binding affinity for Dopamine receptor D2 was determined.
Test [7] deals with T7, D(3) dopamine receptor (Homo sapiens, UniProt P35462). As to the kind of experiment: Binding affinity for Dopamine receptor D3 was determined.
In test [8] the target is T8, 5-hydroxytryptamine receptor 2A (Homo sapiens, UniProt P28223). The experiment in a line: Binding affinity for 5-hydroxytryptamine 2A receptor was determined.
Test [9] concerns the target T9, 5-hydroxytryptamine receptor 6 (Homo sapiens, UniProt P50406). The experiment in a line: Binding affinity for 5-hydroxytryptamine 6 receptor was determined.
For test [10], the target named is T10, 5-hydroxytryptamine receptor 1F (Homo sapiens, UniProt P30939).
T10 sequence (P30939 whole entry): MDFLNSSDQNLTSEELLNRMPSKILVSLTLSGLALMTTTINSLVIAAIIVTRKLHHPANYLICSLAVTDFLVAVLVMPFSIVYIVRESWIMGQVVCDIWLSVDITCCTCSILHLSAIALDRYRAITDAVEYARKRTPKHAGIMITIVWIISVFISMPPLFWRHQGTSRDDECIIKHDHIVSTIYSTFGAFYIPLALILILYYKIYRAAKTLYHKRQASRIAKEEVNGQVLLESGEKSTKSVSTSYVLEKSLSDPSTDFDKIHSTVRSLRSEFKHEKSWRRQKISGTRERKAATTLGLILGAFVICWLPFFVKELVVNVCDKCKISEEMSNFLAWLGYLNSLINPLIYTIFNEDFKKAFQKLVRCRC
As to the kind of experiment: Binding affinity for 5-hydroxytryptamine 1F receptor was determined.

The target in test [11] is T11, 5-hydroxytryptamine receptor 1E (Homo sapiens, UniProt P28566). The experiment in a line: Binding affinity for 5-hydroxytryptamine 1E receptor was determined.
Test [12] concerns the target T12, C-C chemokine receptor type 2 (Homo sapiens, UniProt P41597). As to the kind of experiment: Inhibition of [125I]MCP-1 binding to the cloned C-C chemokine receptor type 2B expressed in CHO cells; IA means inactive. Format: cell-based.
Target sequence in this assay (P41597 whole entry, looked up): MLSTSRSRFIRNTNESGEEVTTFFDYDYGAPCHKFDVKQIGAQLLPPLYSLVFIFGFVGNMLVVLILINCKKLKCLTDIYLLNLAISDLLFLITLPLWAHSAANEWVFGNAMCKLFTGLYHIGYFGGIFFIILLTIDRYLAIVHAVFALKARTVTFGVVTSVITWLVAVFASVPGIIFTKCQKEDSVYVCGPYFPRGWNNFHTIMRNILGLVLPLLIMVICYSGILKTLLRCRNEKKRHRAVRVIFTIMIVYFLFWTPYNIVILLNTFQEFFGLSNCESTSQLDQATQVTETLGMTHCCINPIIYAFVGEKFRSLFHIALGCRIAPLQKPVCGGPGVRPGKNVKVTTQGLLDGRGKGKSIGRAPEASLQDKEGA
Test [13] has as its target T6, D(2) dopamine receptor. The experiment in a line: (§1) Binding affinity relative to indolopiperidine (compound 1) for Dopamine receptor D2 was determined.
In test [14] the target is T13, 5-hydroxytryptamine receptor 2C (Homo sapiens) (UniProt P28335).
T13 sequence (whole entry): T1 sequence (P28335 whole entry)
The experiment in a line: Binding affinity relative to indolopiperidine (compound 1) for 5-hydroxytryptamine 2C receptor was determined.

For test [15], the target named is T9, 5-hydroxytryptamine receptor 6. As to the kind of experiment: Binding affinity relative to indolopiperidine (compound 1) for 5-hydroxytryptamine 6 receptor was determined.
Test [16] concerns the target T7, D(3) dopamine receptor. As to the kind of experiment: (§2) Binding affinity relative to indolopiperidine (compound 1) for Dopamine receptor D3 was determined.
Test [17] addresses T11, 5-hydroxytryptamine receptor 1E. The experiment in a line: Binding affinity relative to indolopiperidine (compound 1) for 5-hydroxytryptamine 1E receptor was determined.
The target in test [18] is T14, 5-hydroxytryptamine receptor 1F (Homo sapiens) (UniProt P30939).
T14 sequence (whole entry): T10 sequence (P30939 whole entry)
As to the kind of experiment: Binding affinity relative to indolopiperidine (compound 1) for 5-hydroxytryptamine 1F receptor was determined.

For test [19], the target named is T2, 5-hydroxytryptamine receptor 1B. The experiment in a line: Binding affinity relative to indolopiperidine (compound 1) for 5-hydroxytryptamine 1B receptor was determined.
Test [20] has as its target T4, 5-hydroxytryptamine receptor 7. As to the kind of experiment: (§3) Binding affinity relative to indolopiperidine (compound 1) for 5-hydroxytryptamine 7 receptor was determined.
For test [21], the target named is T12, C-C chemokine receptor type 2.
Target sequence in this assay (P41597 whole entry, looked up): as above
Test [22] concerns the target T15, 5-hydroxytryptamine receptor 1A (Homo sapiens) (UniProt P08908).
T15 sequence (whole entry): T3 sequence (P08908 whole entry)
As to the kind of experiment: Binding affinity relative to indolopiperidine (compound 1) for 5-hydroxytryptamine 1A receptor was determined.

The target of test [23] is T8, 5-hydroxytryptamine receptor 2A. As to the kind of experiment: Binding affinity relative to indolopiperidine (compound 1) for 5-hydroxytryptamine 2A receptor was determined.
The target of test [24] is T5, 5-hydroxytryptamine receptor 2B. The experiment in a line: Binding affinity relative to indolopiperidine (compound 1) for 5-hydroxytryptamine 2B receptor was determined.
For test [25], the target named is T12, C-C chemokine receptor type 2. The experiment in a line: (§4) Inhibition of [125I]MCP-1 binding to the cloned C-C chemokine receptor type 2B expressed in CHO cells. It counts as cell-based.
Target sequence in this assay (P41597 whole entry): as the sequence (P41597 whole entry, looked up) above
The target is the same in test [26]. The test is described as §4. It counts as cell-based. This is another data set of the same source.
Target sequence in this assay (P41597 whole entry): as the sequence (P41597 whole entry, looked up) above
Test [27] shares this target. Described as §4. Format: cell-based. The source holds these as a separate data set.
Target sequence in this assay (P41597 whole entry): as the sequence (P41597 whole entry, looked up) above
Test [28] addresses T6, D(2) dopamine receptor. The description is as §1. This is another data set of the same source.
In test [29] the target is T12, C-C chemokine receptor type 2. As to the kind of experiment: Binding affinity relative to indolopiperidine (compound 1) forC-C chemokine receptor type 2B was determined.
Target sequence in this assay (P41597 whole entry, looked up): as above
The target in test [30] is T7, D(3) dopamine receptor. The test is described as §2. The source holds these as a separate data set.
In test [31] the target is T12, C-C chemokine receptor type 2. The experiment in a line: Binding affinity for C-C chemokine receptor type 2B was determined.
Target sequence in this assay (P41597 whole entry): as the sequence (P41597 whole entry, looked up) above
Test [32] deals with T4, 5-hydroxytryptamine receptor 7. The test is described as §3. This is another data set of the same source.
In test [33] the target is T8, 5-hydroxytryptamine receptor 2A. As to the kind of experiment: Binding affinity relative to indolopiperidine (compound 1)for 5-hydroxytryptamine 2A receptor was determined.
Test [34] addresses T12, C-C chemokine receptor type 2. As to the kind of experiment: Binding affinity relative to indolopiperidine (compound 1) for C-C chemokine receptor type 2B was determined.
Target sequence in this assay (P41597 whole entry, looked up): as above
For test [35] the target is unchanged. The experiment in a line: Inhibition of [125I]MCP-1 binding to the cloned C-C chemokine receptor type 2B expressed in CHO cells; IA mean inactive. It counts as cell-based.
Target sequence in this assay (P41597 whole entry, looked up): as above

T9 sequence (P50406 whole entry): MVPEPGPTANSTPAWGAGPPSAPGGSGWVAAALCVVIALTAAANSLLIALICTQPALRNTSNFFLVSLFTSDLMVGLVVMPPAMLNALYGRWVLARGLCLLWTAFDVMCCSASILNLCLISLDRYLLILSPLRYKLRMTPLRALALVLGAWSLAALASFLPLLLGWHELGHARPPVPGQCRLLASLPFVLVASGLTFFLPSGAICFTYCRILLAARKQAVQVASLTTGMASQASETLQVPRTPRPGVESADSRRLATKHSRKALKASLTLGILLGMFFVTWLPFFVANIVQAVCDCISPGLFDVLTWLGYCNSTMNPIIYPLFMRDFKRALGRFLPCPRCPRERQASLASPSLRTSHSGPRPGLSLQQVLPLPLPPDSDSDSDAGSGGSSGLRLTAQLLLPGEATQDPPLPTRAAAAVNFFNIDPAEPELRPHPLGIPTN
T7 sequence (P35462 whole entry): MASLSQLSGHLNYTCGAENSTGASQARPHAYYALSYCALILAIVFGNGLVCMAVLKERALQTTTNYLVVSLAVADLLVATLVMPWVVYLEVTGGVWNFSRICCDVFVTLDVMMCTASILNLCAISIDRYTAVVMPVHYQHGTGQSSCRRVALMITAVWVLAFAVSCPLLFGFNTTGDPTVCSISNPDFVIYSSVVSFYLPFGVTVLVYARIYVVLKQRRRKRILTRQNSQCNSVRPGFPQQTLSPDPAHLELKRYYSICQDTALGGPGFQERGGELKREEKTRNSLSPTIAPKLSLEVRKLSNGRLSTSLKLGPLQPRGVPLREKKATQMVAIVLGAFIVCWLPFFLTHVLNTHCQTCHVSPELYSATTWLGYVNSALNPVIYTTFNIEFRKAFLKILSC
T8 sequence (P28223 whole entry): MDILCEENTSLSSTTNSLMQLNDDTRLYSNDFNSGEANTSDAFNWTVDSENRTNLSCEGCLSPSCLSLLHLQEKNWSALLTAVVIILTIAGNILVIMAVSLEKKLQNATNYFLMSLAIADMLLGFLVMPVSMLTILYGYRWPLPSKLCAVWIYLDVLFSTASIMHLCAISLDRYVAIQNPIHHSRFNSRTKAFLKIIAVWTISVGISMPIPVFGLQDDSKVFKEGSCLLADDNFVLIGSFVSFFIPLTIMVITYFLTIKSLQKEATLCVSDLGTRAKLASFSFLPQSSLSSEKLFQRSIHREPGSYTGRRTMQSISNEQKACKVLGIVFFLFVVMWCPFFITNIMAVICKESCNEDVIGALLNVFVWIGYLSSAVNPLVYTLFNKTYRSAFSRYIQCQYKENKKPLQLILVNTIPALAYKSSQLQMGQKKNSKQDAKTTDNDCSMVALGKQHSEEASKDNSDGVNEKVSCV
T5 sequence (P41595 whole entry): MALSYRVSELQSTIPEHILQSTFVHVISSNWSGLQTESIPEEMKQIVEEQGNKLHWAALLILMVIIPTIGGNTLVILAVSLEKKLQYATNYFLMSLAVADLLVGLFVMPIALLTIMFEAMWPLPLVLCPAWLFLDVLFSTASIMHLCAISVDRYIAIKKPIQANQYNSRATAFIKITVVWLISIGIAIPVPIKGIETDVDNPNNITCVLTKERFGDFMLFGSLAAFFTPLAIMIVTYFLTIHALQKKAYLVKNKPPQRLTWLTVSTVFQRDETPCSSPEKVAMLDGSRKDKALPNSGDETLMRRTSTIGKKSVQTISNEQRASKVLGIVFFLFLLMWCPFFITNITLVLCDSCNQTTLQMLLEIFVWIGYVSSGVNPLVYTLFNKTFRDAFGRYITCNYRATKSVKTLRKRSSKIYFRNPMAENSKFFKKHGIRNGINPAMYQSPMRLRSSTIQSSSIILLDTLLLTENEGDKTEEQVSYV
T2 sequence (P28222 whole entry): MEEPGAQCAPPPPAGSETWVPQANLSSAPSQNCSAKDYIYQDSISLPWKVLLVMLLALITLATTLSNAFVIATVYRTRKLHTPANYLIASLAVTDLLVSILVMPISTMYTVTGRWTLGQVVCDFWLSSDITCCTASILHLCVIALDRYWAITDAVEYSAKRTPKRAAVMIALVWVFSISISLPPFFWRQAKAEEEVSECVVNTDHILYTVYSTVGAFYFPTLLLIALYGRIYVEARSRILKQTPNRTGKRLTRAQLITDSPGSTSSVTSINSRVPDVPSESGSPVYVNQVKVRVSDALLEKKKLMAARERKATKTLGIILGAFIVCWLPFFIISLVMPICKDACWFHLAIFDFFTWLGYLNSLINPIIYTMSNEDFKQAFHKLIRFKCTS
T6 sequence (P14416 whole entry): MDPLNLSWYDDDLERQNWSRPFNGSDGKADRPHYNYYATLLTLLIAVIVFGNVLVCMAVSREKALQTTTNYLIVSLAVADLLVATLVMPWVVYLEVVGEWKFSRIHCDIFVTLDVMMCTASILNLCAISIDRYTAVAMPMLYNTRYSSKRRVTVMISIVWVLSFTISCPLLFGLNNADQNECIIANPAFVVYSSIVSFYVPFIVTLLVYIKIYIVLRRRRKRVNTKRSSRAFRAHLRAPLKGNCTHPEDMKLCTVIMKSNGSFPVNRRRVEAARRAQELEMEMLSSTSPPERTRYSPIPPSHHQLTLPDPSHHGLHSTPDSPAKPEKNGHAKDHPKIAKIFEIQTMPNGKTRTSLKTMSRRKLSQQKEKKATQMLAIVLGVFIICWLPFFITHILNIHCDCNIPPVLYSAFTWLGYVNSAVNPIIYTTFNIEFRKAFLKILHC
T11 sequence (P28566 whole entry): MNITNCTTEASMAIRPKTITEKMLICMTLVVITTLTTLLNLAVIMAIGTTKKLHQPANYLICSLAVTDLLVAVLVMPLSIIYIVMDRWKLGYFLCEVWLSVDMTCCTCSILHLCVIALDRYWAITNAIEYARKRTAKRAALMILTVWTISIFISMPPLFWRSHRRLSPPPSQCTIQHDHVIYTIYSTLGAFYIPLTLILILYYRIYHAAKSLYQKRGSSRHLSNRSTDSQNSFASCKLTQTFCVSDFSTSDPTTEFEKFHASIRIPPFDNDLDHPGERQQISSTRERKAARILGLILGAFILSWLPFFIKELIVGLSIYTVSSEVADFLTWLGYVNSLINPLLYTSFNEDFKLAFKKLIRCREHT
T4 sequence (P34969 whole entry): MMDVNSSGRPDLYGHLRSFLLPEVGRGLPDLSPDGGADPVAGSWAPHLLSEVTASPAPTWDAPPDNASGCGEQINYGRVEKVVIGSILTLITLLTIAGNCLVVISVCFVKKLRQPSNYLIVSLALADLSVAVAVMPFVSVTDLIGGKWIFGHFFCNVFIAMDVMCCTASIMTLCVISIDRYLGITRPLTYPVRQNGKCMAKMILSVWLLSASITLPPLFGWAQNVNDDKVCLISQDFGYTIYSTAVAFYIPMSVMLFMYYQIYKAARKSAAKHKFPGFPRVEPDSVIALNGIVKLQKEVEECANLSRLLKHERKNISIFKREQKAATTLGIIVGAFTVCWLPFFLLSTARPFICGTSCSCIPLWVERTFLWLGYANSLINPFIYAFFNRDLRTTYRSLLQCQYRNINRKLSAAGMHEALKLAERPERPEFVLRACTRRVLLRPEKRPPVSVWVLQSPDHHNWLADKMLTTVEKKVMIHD

For the compound `O=C(/C=C/c1ccc(Cl)c(Cl)c1)NCCCCCN1CCC(c2c[nH]c3ccc(O)cc23)CC1`, the Ki is 79.4 nM in test [1]; 12.6 nM in [2]; 100 nM in test [3]; 63.1 nM in test [4]; 25.1 nM in [5]; 15.8 nM at D(2) dopamine receptor [6]. The Ki at D(3) dopamine receptor [7] was 7.94 nM; in test [8] it was 20 nM; in test [9], 79.4 nM; in [10], 3.16 nM; in test [11], 6.31 nM.

As for `O=C(/C=C/c1ccc(Cl)c(Cl)c1)Nc1ccc(CN2CCC(c3c[nH]c4ccccc34)CC2)cc1`, in test [12], the “Log Ki” value is “inactive”.

For the compound `O=C(/C=C/c1ccc(Cl)c(Cl)c1)NCCCCCN1[C@@H]2CC[C@H]1CC(c1c[nH]c3ccc(O)cc13)C2` (stereo in doubt) [listing 1 of 2 here], the Delta pKi on D(2) dopamine receptor [13] is -1.7; in test [14] it was -0.5; in test [15], -0.9; on D(3) dopamine receptor [16], -1.4; in test [17], -3.2; in test [18] it was -2.7. Besides, the Delta pKi in test [19] was -1.6; in test [20] it was -1.5; in [21], -0.7; in [22], -1.1; in test [23] it was -0.9; in test [24], -1.5.

In test [25], `O=C(/C=C/c1ccc(Cl)c(Cl)c1)N[C@H]1CC[C@@H](CN2CCC(c3c[nH]c4ccccc34)CC2)CC1` came in with an inhibitory constant (Ki) of 126 nM.

For `O=C(/C=C/c1ccc(Cl)c(Cl)c1)NCCCCCN1[C@@H]2CC[C@H]1CC(c1c[nH]c3ccc(O)cc13)C2` (single isomer, unassigned), the results for the Ki in test [26] and in test [27] were 630 nM and 631 nM, respectively.

As to `O=C(/C=C/c1ccc(Cl)c(Cl)c1)N[C@H]1CC[C@@H](CN2[C@@H]3CC[C@H]2C[C@H](c2c[nH]c4ccc(O)cc24)C3)CC1`, the Ki is 1260 nM on D(2) dopamine receptor [28]; more than 3160 nM in test [1]; 1000 nM in [2]; 7940 nM in [3]; 501 nM in test [5]; 39.8 nM in test [27]. The Ki on D(3) dopamine receptor [30] was 2510 nM; in test [8], more than 20000 nM; in [9], 2000 nM; in test [31] it was 40 nM; in test [10], more than 3160 nM; in [11] it was more than 6310 nM. The Delta pKi is -1.9 at D(2) dopamine receptor [13]; more than -1.6 in test [14]; -1.4 in test [15]; -2.5 at D(3) dopamine receptor [16]; more than -3.2 in [17]; more than -3 in test [18]. Moreover, the Delta pKi was -1.9 in [19]; 0.1 in test [29]; more than -1.9 in test [20]; -1.9 in [22]; -3 in test [23]; -1.3 in test [24]. Further, in test [32], the “Log Ki” value is listed as less than -6.1.

On to `O=C(/C=C/c1ccc(Cl)c(Cl)c1)N[C@H]1CC[C@@H](CN2CCC(c3c[nH]c4ccc(O)cc34)CC2)CC1`, for which the Delta pKi was -0.8 at D(2) dopamine receptor [13]; -0.4 in test [14]; -0.9 in test [15]; -0.9 on D(3) dopamine receptor [16]; -1.4 in test [17]; -2.6 in test [18]. The Delta pKi in test [19] is -1.2; in [20] it was -0.4; in test [33], -0.1; in [34] it was -0.2; in test [22], -0.7; in test [24] it was -0.5. The Ki in test [26] is 79 nM and 126 nM; in test [27], 79.4 nM.

Regarding `O=C(/C=C/c1ccc(Cl)c(Cl)c1)NCCCCCN1[C@@H]2CC[C@H]1CC(c1c[nH]c3ccc(O)cc13)C2` (stereo in doubt) [listing 2 of 2 here], the Ki in test [25] and in test [27] was 251 nM each time.

With `O=C(/C=C/c1ccc(Cl)c(Cl)c1)NCc1cccc(CN2CCC(c3c[nH]c4ccccc34)CC2)c1`, the “Log Ki” value in test [35] is “inactive”.
